These results are taken from US8354403B2, “Pyrrolidine derived beta 3 adrenergic receptor agonists” (Merck Sharp & Dohme Corp., priority 2009, dated 2013).

T1 sequence (P13945 whole entry): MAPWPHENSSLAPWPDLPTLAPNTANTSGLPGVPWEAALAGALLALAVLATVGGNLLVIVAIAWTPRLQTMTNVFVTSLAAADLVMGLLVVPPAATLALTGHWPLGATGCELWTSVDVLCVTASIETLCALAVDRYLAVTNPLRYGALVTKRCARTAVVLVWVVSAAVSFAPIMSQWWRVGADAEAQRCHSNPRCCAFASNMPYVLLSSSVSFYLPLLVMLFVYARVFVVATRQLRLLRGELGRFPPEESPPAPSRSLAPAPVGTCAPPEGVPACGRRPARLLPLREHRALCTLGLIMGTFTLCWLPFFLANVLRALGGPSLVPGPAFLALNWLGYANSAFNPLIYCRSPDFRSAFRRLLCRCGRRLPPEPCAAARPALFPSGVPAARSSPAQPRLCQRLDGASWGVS

The first experiment has as its target T1, human β3 adrenergic receptor (Homo sapiens, UniProt P13945).
T1 construct: expressed in transfected cells; host or cells: Chinese hamster ovary (CHO) cells, stably transfected
Nature of the experiment: Beta-3 agonist in vitro functional assay: cAMP production (LANCE TR-FRET) in CHO cells stably transfected with the cloned β3 receptor. Type of experiment: cell-based. To be noted: Table 4; cAMP, CHO cells; read-out: Human β3 agonist functional activity. In outline:
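CHO cells stably expressing the cloned receptor, in HEPES-buffered HBSS with BSA and 0.6 mM IBMX, 6,000 cells/well, exposed to compound for 30 min at RT. cAMP read by LANCE TR-FRET against a cAMP standard curve. Isoproterenol defines maximal stimulation.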
Take `CCOC(=O)C1CCN(C(=O)c2ccc(C[C@@H]3CC[C@H]([C@H](O)c4ccccc4)N3)cc2)C1` (stereo partly shown) [Example 6]: the EC50 fell in the range of 100 to 999 nM.

As to `O=C(c1ccc(C[C@@H]2CC[C@H]([C@H](O)c3ccccc3)N2)cc1)N1CC2CC(n3ccnn3)CC2C1` (stereo partly shown) [Example 21], the EC50 was 10 to 99.9 nM.

Staying with this experiment, now noted: Table 5; cAMP, CHO cells; read-out: Human β3 agonist functional activity.
As for `O=C(c1ccc(C[C@@H]2CC[C@H]([C@H](O)c3cccnc3)N2)cc1)N1CCC(S(=O)(=O)c2ccccc2F)CC1` [Example 133], the EC50 is 10 to 99.9 nM.

For the molecule `O=C(c1ccc(C[C@@H]2CC[C@H]([C@H](O)c3ccccc3)N2)cc1)N1CCC(N2Cc3ccccc3NC2=O)CC1` [Example 72], the EC50 lay in the range of 100 to 999 nM.

As for `O=C(c1ccc(C[C@@H]2CC[C@H]([C@H](O)c3cccnc3)N2)cc1)N1CCC(n2nccn2)CC1` [Example 94], the EC50 lay within 100 to 999 nM.

On to `CC(C1CCN(C(=O)c2ccc(C[C@@H]3CC[C@H]([C@H](O)c4ccccc4)N3)cc2)CC1)n1cnccc1=O` (stereo partly shown) [Example 166], for which the EC50 lay in the range of 10 to 99.9 nM.

For the molecule `O=C(c1ccc(C[C@@H]2CC[C@H]([C@H](O)c3ccccc3)N2)cc1)N1CCC(S(=O)(=O)CC(F)(F)F)CC1` [Example 125], the EC50 was in the range of 10 to 99.9 nM.

As to `O=C(c1ccc(C[C@@H]2CC[C@H]([C@H](O)c3ccccc3)N2)cc1)N1CCC(OCc2ccccn2)CC1` [Example 163], the EC50 fell in the range of 100 to 999 nM.

For `O=C(c1ccc(C[C@@H]2CC[C@H]([C@H](O)c3ccccc3)N2)cc1)N1CCC(c2ncccn2)CC1` [Example 114], the EC50 is 100 to 999 nM.

For `O=C(c1ccc(C[C@@H]2CC[C@H]([C@H](O)c3ccccc3)N2)cc1)N1CCC(c2nc(-c3cccnc3)no2)CC1` [Example 82], the EC50 is 100 to 999 nM.

For the molecule `O=C(c1ccc(C[C@@H]2CC[C@H]([C@H](O)c3ccccc3)N2)cc1)N1CCC(COc2ccncn2)CC1` [Example 162], the EC50 was 10 to 99.9 nM.

Take `O=C(c1ccc(C[C@@H]2CC[C@H]([C@H](O)c3ccccc3)N2)cc1)N1CCC(S(=O)(=O)c2ccc(F)c(F)c2)CC1` [Example 138]: the EC50 lay within 10 to 99.9 nM.

Still in this experiment, the particulars now being: Table 8; Beta-3 agonist in vitro functional assay; read-out: Human β3 agonist functional activity.
As for `COc1ccc2c(n1)C1(CCN(C(=O)c3ccc(C[C@@H]4CC[C@H]([C@H](O)c5ccccc5)N4)cc3)CC1)OC2=O` [Example 288], the EC50 lay in the range of 10 to 99.9 nM.

`Cc1ccc2c(c1)NC(=O)C21CCN(C(=O)c2ccc(C[C@@H]3CC[C@H]([C@H](O)c4ccccc4)N3)cc2)CC1` [Example 300]: the EC50 is 10 to 99.9 nM.

With `O=C(c1ccc(C[C@@H]2CC[C@H]([C@H](O)c3ccccc3)N2)cc1)N1CCC2(CC1)C(=O)NCN2c1ccccc1` [Example 260], the EC50 is below 1 nM.

In the case of `CC(C)COc1ccc2c(c1)C(=O)CC1(CCN(C(=O)c3ccc(C[C@@H]4CC[C@H]([C@H](O)c5ccccc5)N4)cc3)CC1)O2` [Example 324], the EC50 is 10 to 99.9 nM.

On to `CCN1CCC2(CCN(C(=O)c3ccc(C[C@@H]4CC[C@H]([C@H](O)c5ccccc5)N4)cc3)CC2)C1=O` [Example 252], for which the EC50 lay within 100 to 999 nM.

`O=C(c1ccc(C[C@@H]2CC[C@H]([C@H](O)c3ccccc3)N2)cc1)N1CCC2(CCc3ccccc3S2(=O)=O)CC1` [Example 336]: the EC50 lay within 1 to 9.9 nM.

On to `O=C1OC2(CCN(C(=O)c3ccc(C[C@@H]4CC[C@H]([C@H](O)c5ccccc5)N4)cc3)CC2)Cc2ccccc21` [Example 333], for which the EC50 was in the range of 1 to 9.9 nM.

As for `O=C(c1ccc(C[C@@H]2CC[C@H]([C@H](O)c3ccccc3)N2)cc1)N1CCC2(CC1)OCCS2(=O)=O` [Example 303], the EC50 fell in the range of 10 to 99.9 nM.

As for `O=C(c1ccc(C[C@@H]2CC[C@H]([C@H](O)c3cccnc3)N2)cc1)N1CCC2(CC1)C(=O)NCN2c1ccccc1` [Example 259], the EC50 lay in the range of 1 to 9.9 nM.

The experiment is the same for the next values; noted with them: Table 9; Beta-3 agonist in vitro functional assay; read-out: Human β3 agonist functional activity.
As for `O=C(c1ccc(C[C@@H]2CC[C@H]([C@H](O)c3ccccc3)N2)cc1)N1CCN(c2noc3ccccc23)CC1` [Example 385], the EC50 was 10 to 99.9 nM.

For the molecule `COC(=O)c1csc(N2CCN(C(=O)c3ccc(C[C@@H]4CC[C@H]([C@H](O)c5ccccc5)N4)cc3)CC2)n1` [Example 381], the EC50 was 100 to 999 nM.

In the case of `COc1cccnc1CN1CCN(C(=O)c2ccc(C[C@@H]3CC[C@H]([C@H](O)c4ccccc4)N3)cc2)CC1` [Example 414], the EC50 was in the range of 10 to 99.9 nM.

Consider `CN(C)C(=O)CN1CCN(C(=O)c2ccc(C[C@@H]3CC[C@H]([C@H](O)c4ccccc4)N3)cc2)CC1` [Example 389], for which the EC50 was 100 to 999 nM.

In the case of `O=C(c1ccc(C[C@@H]2CC[C@H]([C@H](O)c3ccccc3)N2)cc1)N1CCN(Cc2ncccc2O)CC1` [Example 413], the EC50 was 10 to 99.9 nM.

For `Cc1noc(C(C)N2CCN(C(=O)c3ccc(C[C@@H]4CC[C@H]([C@H](O)c5ccccc5)N4)cc3)CC2)n1` (stereo partly shown) [Example 422], the EC50 fell in the range of 10 to 99.9 nM.

On to `O=C(c1ccc(C[C@@H]2CC[C@H]([C@H](O)c3ccccc3)N2)cc1)N1CCN(Cc2cnccn2)CC1` [Example 426], for which the EC50 was 10 to 99.9 nM.

`O=C(c1ccc(C[C@@H]2CC[C@H]([C@H](O)c3ccccc3)N2)cc1)N1CCN(Cc2ncccc2C(F)(F)F)CC1` [Example 417]: the EC50 is 10 to 99.9 nM.

Consider `CC(C)(c1ccccc1F)N1CCN(C(=O)c2ccc(C[C@@H]3CC[C@H]([C@H](O)c4ccccc4)N3)cc2)CC1` [Example 412], for which the EC50 fell in the range of 1 to 9.9 nM.

With `O=C(c1ccc(C[C@@H]2CC[C@H]([C@H](O)c3ccccc3)N2)cc1)N1CCN(Cc2ccon2)CC1` [Example 393], the EC50 is 10 to 99.9 nM.

In the case of `O=C(c1ccc(C[C@@H]2CC[C@H]([C@H](O)c3ccccc3)N2)cc1)N1CCN(c2ncccc2F)CC1` [Example 357], the EC50 was in the range of 100 to 999 nM.

In the case of `O=C(c1ccc(C[C@@H]2CC[C@H]([C@H](O)c3ccccc3)N2)cc1)N1CCN(Cc2nccs2)CC1` [Example 394], the EC50 fell in the range of 10 to 99.9 nM.

`O=C(c1ccc(C[C@@H]2CC[C@H]([C@H](O)c3ccccc3)N2)cc1)N1CCN(Cc2ccn[nH]2)CC1` [Example 395]: the EC50 lay in the range of 10 to 99.9 nM.

Still in this experiment, the particulars now being: Table 10; Beta-3 agonist in vitro functional assay; read-out: Human β3 agonist functional activity.
As for `CC(C(=O)N1CCC(CO)CC1)N1CCN(C(=O)c2ccc(C[C@@H]3CC[C@H]([C@H](O)c4ccccc4)N3)cc2)CC1` (stereo partly shown) [Example 490], the EC50 lay within 10 to 99.9 nM.

Turning to `CC(C(=O)N1CC=CCC1)N1CCN(C(=O)c2ccc(C[C@@H]3CC[C@H]([C@H](O)c4ccccc4)N3)cc2)CC1` (stereo partly shown) [Example 492], the EC50 fell in the range of 10 to 99.9 nM.

`CC(C(=O)NCC1CC1(C)C)N1CCN(C(=O)c2ccc(C[C@@H]3CC[C@H]([C@H](O)c4ccccc4)N3)cc2)CC1` (stereo partly shown) [Example 450]: the EC50 lay within 10 to 99.9 nM.

With `CC(C(=O)N1CCc2cnccc2C1)N1CCN(C(=O)c2ccc(C[C@@H]3CC[C@H]([C@H](O)c4ccccc4)N3)cc2)CC1` (stereo partly shown) [Example 508], the EC50 was 10 to 99.9 nM.

With `CC(C(=O)N1C[C@@H]2C[C@H]1CO2)N1CCN(C(=O)c2ccc(C[C@@H]3CC[C@H]([C@H](O)c4ccccc4)N3)cc2)CC1` (stereo partly shown) [Example 500], the EC50 lay in the range of 10 to 99.9 nM.

For `CC(C(=O)N1CCc2ccc(F)cc2C1)N1CCN(C(=O)c2ccc(C[C@@H]3CC[C@H]([C@H](O)c4ccccc4)N3)cc2)CC1` (stereo partly shown) [Example 509], the EC50 was 1 to 9.9 nM.

Regarding `CC(C(=O)NCC1CC1)N1CCN(C(=O)c2ccc(C[C@@H]3CC[C@H]([C@H](O)c4ccccc4)N3)cc2)CC1` (stereo partly shown) [Example 447], the EC50 is 10 to 99.9 nM.

As to `CC(C(=O)N1CCSC1)N1CCN(C(=O)c2ccc(C[C@@H]3CC[C@H]([C@H](O)c4ccccc4)N3)cc2)CC1` (stereo partly shown) [Example 481], the EC50 lay in the range of 100 to 999 nM.

Consider `CCC(C)(C)NC(=O)C(C)N1CCN(C(=O)c2ccc(C[C@@H]3CC[C@H]([C@H](O)c4ccccc4)N3)cc2)CC1` (stereo partly shown) [Example 439], for which the EC50 is 1 to 9.9 nM.

In the case of `COC(=O)C(C)N1CCN(C(=O)c2ccc(C[C@@H]3CC[C@H]([C@H](O)c4ccccc4)N3)cc2)CC1` (stereo partly shown) [Example 434], the EC50 was in the range of 1 to 9.9 nM.

In the case of `CC(C)C1CC(CNC(=O)C(C)N2CCN(C(=O)c3ccc(C[C@@H]4CC[C@H]([C@H](O)c5ccccc5)N4)cc3)CC2)C1` (stereo partly shown) [Example 454], the EC50 is 10 to 99.9 nM.

With `CC(C(=O)N1CCCC2(CCO2)C1)N1CCN(C(=O)c2ccc(C[C@@H]3CC[C@H]([C@H](O)c4ccccc4)N3)cc2)CC1` (stereo partly shown) [Example 495], the EC50 lay within 10 to 99.9 nM.

Regarding `CC(C(=O)N(C1CC1)C1CC1)N1CCN(C(=O)c2ccc(C[C@@H]3CC[C@H]([C@H](O)c4ccccc4)N3)cc2)CC1` (stereo partly shown) [Example 522], the EC50 was 10 to 99.9 nM.

Regarding `CC1CCCN(C(=O)C(C)N2CCN(C(=O)c3ccc(C[C@@H]4CC[C@H]([C@H](O)c5ccccc5)N4)cc3)CC2)C1` (stereo partly shown) [Example 486], the EC50 lay in the range of 10 to 99.9 nM.

Still in this experiment, the particulars now being: Table 11; cAMP, CHO cells; read-out: Human β3 agonist functional activity.
As for `O=C(c1ccc(C[C@@H]2CC[C@H]([C@H](O)c3ccccc3)N2)cc1)N1CCCN(Cc2ccccn2)CC1` [Example 551], the EC50 lay within 10 to 99.9 nM.

Regarding `C[C@H]1CN(C(=O)c2ccc(C[C@@H]3CC[C@H]([C@H](O)c4ccccc4)N3)cc2)CCN1Cc1n[nH]c2ccccc12` [Example 532], the EC50 was 10 to 99.9 nM.

In the case of `O=C(c1ccc(C[C@@H]2CC[C@H]([C@H](O)c3ccccc3)N2)cc1)N1CC2CC1CN2c1nccs1` (stereo partly shown) [Example 544], the EC50 fell in the range of 999 to 3000 nM.

Staying with this experiment, now noted: Table 12; human β3 functional activity given as ranges; read-out: Human β3 agonist functional activity.
In the case of `CC1CC2(CCN(C(=O)c3ccc(CC4CCC(C(O)c5ccccc5)N4)cc3)CC2)C(=O)O1` (single isomer, unassigned) [Example 562], the EC50 lay in the range of 1 to 9.9 nM.

As for `CC(c1ncccc1Cl)N1CCN(C(=O)c2ccc(CC3CCC(C(O)c4ccccc4)N3)cc2)CC1` (single isomer, unassigned) [Example 593], the EC50 lay within 1 to 9.9 nM.

As for `CC(c1cscn1)N1CCN(C(=O)c2ccc(C[C@@H]3CC[C@H]([C@H](O)c4ccccc4)N3)cc2)CC1` (single isomer, unassigned) [Example 580], the EC50 fell in the range of 10 to 99.9 nM.

The experiment is the same for the next values; noted with them: Table 13; human Beta-3 agonist functional activity given as range; read-out: Human β3 agonist functional activities.
As for `O=C(c1ccc(C[C@@H]2CC[C@H]([C@H](O)c3ccccc3)N2)c(Br)c1)N1CCC2(CCOC2=O)CC1` [Example 610], the EC50 lay within 1 to 9.9 nM.
